Values belong to the compound of their own block, whether it stands above or below them.
Columns and labels:
[1] = tested on: HDAC (HeLa cell extract); test: Primary assay: deacetylase activity, HeLa cell extract as source of HDAC; assay type: biochemical, human
Text: Briefly, this assay relies on the release of radioactive acetate from a radioactively labelled histone fragment by the action of HDAC enzyme. Test compounds, which inhibit HDAC, reduce the yield of radioactive acetate. Signal (e.g., scintillation counts) measured in the presence and absence of a test compound provide an indication of that compound's ability to inhibit HDAC activity. Decreased activity indicates increased inhibition by the test compound.
The histone fragment was an N-terminal sequence from histone H4, and it was labelled with radioactively labelled acetyl groups using tritiated acetylcoenzyme A (coA) in conjunction with an enzyme which is the histone acetyltransferase domain of the transcriptional coactivator p300. 0.33 mg of peptide H4 (the N-terminal 20 amino acids of histone H4, synthesized using conventional methods) were incubated with His6-tagged p300 histone acetyltransferase domain (amino acids 1195-1673, expressed in E coli strain BLR(DE3)pLysS (Novagen, Cat. No. 69451-3) and 3H-acetyl coA (10 μL of 3.95 Ci/mmol; from Amersham) in a total volume of 300 μL of HAT buffer (50 mM TrisCl pH 8, 5% glycerol, 50 mM KCl, 0.1 mM ethylenediaminetetraacetic acid (EDTA), 1 mM dithiothreitol (DTT) and 1 mM 4-(2-aminoethyl)-benzenesulfonylfluoride (AEBSF)). The mixture was incubated at 30° C. for 45 min after which the His-p300 was removed using nickel-trinitriloacetic acid agarose (Qiagen, Cat No. 30210). The acetylated peptide was then separated from free acetyl coA by size exclusion chromatography on Sephadex G-15 (Sigma G-15-120), using distilled H2O as the mobile phase.
After purification of the radiolabelled histone fragment, it was incubated with a source of HDAC (e.g., an extract of HeLa cells (a rich source of HDAC), recombinantly produced HDAC1 or HDAC2) and any released acetate was extracted into an organic phase and quantitatively determined using scintillation counting. By including a test compound with the source of HDAC, that compound's ability to inhibit the HDAC was determined.
Two cell volumes of extraction buffer were used, and particulate material was centrifuged out (20800 g, 4° C., 10 min). The supernatant extract having deacetylase activity was aliquotted and frozen for storage.
A source of HDAC (e.g., 2 μL of crude HeLa extract, 5 μL of HDAC1 or HDAC2; in elution buffer, as above) was incubated with 3 μL of radioactively labelled peptide along with appropriate dilutions of candidate compounds (1.5 μL) in a total volume of 150 μL of buffer (20 mM Tris pH 7.4, 10% glycerol). The reaction was carried out at 37° C. for one hour, after which the reaction was stopped by adding 20 μL of 1 M HCl/0.4 M sodium acetate. Then, 750 μL of ethyl acetate was added, the samples vortexed and, after centrifugation (14000 rpm, 5 min), 600 μL from the upper phase were transferred to a vial containing 3 mL of scintillation liquid (UltimaGold, Packard, Cat. No. 6013329). Radioactivity was measured using a Tri-Carb 2100TR Liquid Scintillation Analyzer (Packard).
Percent activity (% activity) for each test compound was calculated as: % activity={(S^C−B)/(S^o−B)}×100 wherein S^c denotes signal measured in the presence of enzyme and the compound being tested, S^o denotes signal measured in the presence of enzyme but in the absence of the compound being tested, and B denotes the background signal measured in the absence of both enzyme and compound being tested.

[2] = tested on: JURKAT human T-cell line; test: Secondary assay: cell proliferation WST-1, Jurkat; assay type: cell-based; details: 48 h, read-out: Cell Proliferation Inhibition WST-1 IC50, Jurkat
Protocol: (§1) Compounds with HDAC inhibition activity, as determined using the primary assay, were subsequently evaluated using secondary cell-based assays. The following cell lines were used:
JURKAT—Human T-cell line (ATCC no. TIB-152).
(§2) Cells were plated in 96-well plates at 3-10×10^3 cells/well in 100 μL of culture medium. The following day, different concentrations of candidate compounds were added and the cells incubated at 37° C. for 48 h. Subsequently, 10 μL/well of WST-1 reagent was added and the cells reincubated for 1 hour. After the incubation time, absorbance was measured.
(§3) WST-1 is a tetrazolium salt which is cleaved to formazan dye by cellular enzymes. […] The formazan dye produced is quantified by a scanning multiwell spectrophotometer by measuring the absorbance of the dye solution at 450 nm wavelength (reference wavelength 690 nm).
(§4) Percent activity (% activity) in reducing the number of viable cells was calculated for each test compound as: % activity={(S^C−B)/(S^o−B)}×100 wherein S^C denotes signal measured in the presence of the compound being tested, S^o denotes signal measured in the absence of the compound being tested, and B denotes the background signal measured in blank wells containing medium only. […] IC50 values were calculated using the software package Prism 3.0 (GraphPad Software Inc., San Diego, Calif.), setting top value at 100 and bottom value at 0.

[3] = tested on: K11 HPV E7 transformed human keratinocyte line; test: Secondary assay: cell proliferation WST-1, K11; assay type: cell-based; details: K11, 48 h, read-out: Cell Proliferation Inhibition WST-1 IC50, K11
Protocol: as §1
K11—HPV E7 transformed human keratinocyte line provided by Pidder Jansen-Duerr, Institut für Biomedizinische Alternsforschung, Innsbruck, Austria.
as §2
as §3, with “enzymes. An expansion in the number of viable cells results in an increase in the overall activity of mitochondrial dehydrogenases in the sample.” for “enzymes.”
IC50 values were calculated using the software package Prism 3.0 (GraphPad Software Inc., San Diego, Calif.), setting top value at 100 and bottom value at 0.

[4] = tested on: HeLa cells; test: Secondary assay: cell proliferation WST-1, HeLa; assay type: cell-based; details: Homo sapiens, 48 h, read-out: Cell Proliferation Inhibition WST-1 IC50, HeLa
Protocol: as §1, §2, §3, §4

SMILES: CC(C)c1ccc(NC(=O)COCC(=O)NO)cc1 [Compound 1]
HDAC Inhibition, HeLa (percent activity) ([1]; @ 1.0 μM): 16% @ 1.0 μM

SMILES: CN(C)c1ccc(NC(=O)CSCC(=O)NO)cc1 [Compound 2]
HDAC Inhibition, HeLa (percent activity) ([1]; @ 500 nM): 26% @ 500 nM

SMILES: O=C(/C=C/C#Cc1cccc(NS(=O)(=O)c2ccccc2)c1)NO [Oxamflatin, (2E)-5-[3-[(phenylsulfonyl)amino]phenyl]-pent-2-en-4-ynohydroxamic acid, reference compound]
IC50 [2]: 0.17 µM
IC50 [3]: 4.82 µM

SMILES: O=C(/C=C/C=C/c1ccccc1)NCCCOc1ccc(CC(=O)NO)cc1 [Compound 7, (2E,4E)-N-(3-{4-[2-(Hydroxyamino)-2-oxoethyl]phenoxy}propyl)-5-phenyl-2,4-pentadienamide]
HDAC Inhibition, HeLa (percent activity) ([1]; @ 500 nM): 7% @ 500 nM

SMILES: CN(C)c1ccc(NC(=O)COCC(=O)NO)cc1 [Compound 4]
HDAC Inhibition, HeLa (percent activity) ([1]; @ 1.0 μM): 0% @ 1 μM

SMILES: O=C(CCSCCNC(=O)c1ccc2ccccc2c1)NO [Compound 6, E-Naphthalene-2-carboxylic acid [2-(2-hydroxycarbamoylethylsulfanyl)ethyl]amide]
HDAC Inhibition, HeLa (percent activity) ([1]; @ 500 nM): 43% @ 500 nM

SMILES: O=C(/C=C/c1ccccc1)Nc1cccc(OCC(=O)NO)c1 [Compound 8, (E)-N-{3-[2-(Hydroxyamino)-2-oxoethoxy]phenyl}-3-phenyl-2-propenamide]
IC50 [4]: 25 µM
IC50 ([1]; unit inferred, read-out: HDAC Inhibition IC50, HeLa): 0.75 µM
IC50 [2]: 12.7 µM
IC50 [3]: 1.05 µM

IC50 [4]: 87 µM
SMILES: O=C(/C=C/C=C/c1ccccc1)NCCSCCC(=O)NO [Compound 5, (2E)(4E)-5-Phenylpenta-2,4-dienoic acid [2-(2-hydroxycarbamoylethylsulfanyl)ethyl]amide]
HDAC Inhibition, HeLa (percent activity) ([1]; @ 500 nM): 74% @ 500 nM
